Test results reported in PubChem BioAssay AID238 (DTP/NCI, 2004).
Values joined by “and” are separate entries in the source; they are usually repeats but may differ in a detail not shown here. Identical values can stand only once. Inconclusive results and toxic doses are left out.

Tested on: CAF1 mice, leiomyosarcoma No.2 ip, survival T/C%
Experiment: NCI In Vivo Anticancer Drug Screen. Data for tumor model Leiomyosarcoma (No. 2) (intraperitoneal) in CAF1 mice
Conditions: endpoint: mean survival time, schedule: Q01DX010 (ip), higher = longer survival
Method: The antitumor activity of compounds was measured in mice bearing transplantable tumors. Survival or tumor size were measured and the results are expressed as the measurement made in the treated group (T) divided by the measurement made in the vehicle treated control group (C). The tumor model used in this assay is Leiomyosarcoma (No. 2) (intraperitoneal) in CAF1 mice

[1] = dose: 12.5 mg/kg/injection, vehicle: saline
[2] = dose: 10.0 mg/kg/injection, vehicle: saline
[3] = dose: 20.0 mg/kg/injection, vehicle: saline
[4] = dose: 40.0 mg/kg/injection, vehicle: saline
[5] = dose: 8.0 mg/kg/injection, vehicle: saline
[6] = dose: 16.0 mg/kg/injection, vehicle: saline
[7] = dose: 5.0 mg/kg/injection, vehicle: saline
[8] = dose: 25.0 mg/kg/injection, vehicle: saline
[9] = dose: 50.0 mg/kg/injection, vehicle: saline
[10] = dose: 100.0 mg/kg/injection, vehicle: saline
[11] = dose: 200.0 mg/kg/injection, vehicle: saline
[12] = dose: 400.0 mg/kg/injection, vehicle: saline
[13] = dose: 6.0 mg/kg/injection, vehicle: saline
[14] = dose: 62.5 mg/kg/injection, vehicle: saline

For `CCCNc1ncnc2[nH]ncc12`, the T/C (dose: 6.25 mg/kg/injection, vehicle: saline) was 114 % of control and the T/C [1] was 88 % of control and 90 % of control.

For `CCOC(=O)c1[nH]c2ccccc2c1CN(CCCl)CCCl`, the T/C [2] was 116 % of control, the T/C [3] was 170 % of control and the T/C [4] was 150 % of control.

`CCCCOP(=S)(N1CC1)N1CC1` was tested, and the T/C (dose: 4.0 mg/kg/injection, vehicle: saline) was 165 % of control, the T/C [5] was 223 % of control and the T/C [6] was 250 % of control.

In the case of `CN(C)c1ccc(/C=C/c2ccnc3ccccc23)cc1`, the T/C [7] was 96 % of control and 112 % of control, the T/C [2] was 112 % of control and the T/C [3] was 112 % of control. The T/C [4] was 100 % of control.

With `OCC1OC(n2cnc3c(=S)nc[nH]c32)C(O)C1O` (configuration not stated) the T/C [3] was 161 % of control and 248 % of control, the T/C (dose: 80.0 mg/kg/injection, vehicle: saline) was 153 % of control and the T/C (dose: 160.0 mg/kg/injection, vehicle: saline) was 87 % of control.

For `Nc1nc2n[nH]nc2c(=O)[nH]1`, the T/C (dose: 25.0 mg/kg/injection, vehicle: alkali diluted with saline) was 188 % of control and 225 % of control, the T/C [8] was 253 % of control and the T/C (dose: 50.0 mg/kg/injection, vehicle: alkali diluted with saline) was 180 % of control and 250 % of control. For the same molecule, the T/C [9] was 186 % of control, the T/C (dose: 100.0 mg/kg/injection, vehicle: alkali diluted with saline) was 190 % of control and 246 % of control and the T/C (dose: 200.0 mg/kg/injection, vehicle: alkali diluted with saline) was 185 % of control.

`CS(=O)(=O)OCC(O)C(O)C(O)C(O)COS(C)(=O)=O` (configuration not stated) was tested, and the T/C [8] was 104 % of control, the T/C [9] was 109 % of control and 113 % of control and the T/C [10] was 118 % of control. For the same molecule, the T/C [11] was 118 % of control.

For `CN(C)/N=N/c1nc[nH]c1C(N)=O`, the T/C [8] was 109 % of control, the T/C [9] was 109 % of control and 113 % of control and the T/C [10] was 118 % of control. For the same molecule, the T/C [11] was 163 % of control and the T/C [12] was 86 % of control.

`Nc1ncnc2[nH]ncc12` was tested, and the T/C (dose: 1.5 mg/kg/injection, vehicle: saline) was 107 % of control and 112 % of control, the T/C (dose: 3.0 mg/kg/injection, vehicle: saline) was 103 % of control and 108 % of control and the T/C [13] was 96 % of control and 100 % of control. The T/C (dose: 12.0 mg/kg/injection, vehicle: saline) was 88 % of control and 95 % of control.

In the case of `O=C(Nc1ccc(C2=NCCN2)cc1)c1cccc(C(=O)Nc2ccc(C3=NCCN3)cc2)c1`, the T/C [5] was 260 % of control and 300 % of control and the T/C [6] was 257 % of control and 260 % of control.

`CCN(CC)CCNc1ccc(C)c2sc3ccccc3c(=O)c12` was tested, and the T/C [1] was 116 % of control, the T/C [8] was 100 % of control and 116 % of control and the T/C [9] was 103 % of control. For the same molecule, the T/C [10] was 154 % of control.

In the case of `O=c1cnn(C2OC(CO)C(O)C2O)c(=O)[nH]1` (configuration not stated), the T/C [11] was 104 % of control and 107 % of control, the T/C [12] was 104 % of control and 107 % of control and the T/C (dose: 800.0 mg/kg/injection, vehicle: saline) was 107 % of control and 112 % of control.

In the case of `C=CC(CN1CC1)OC(C)=O` (configuration not stated), the T/C (dose: 2.0 mg/kg/injection, vehicle: saline) was 104 % of control and the T/C [5] was 176 % of control.

For `N=C(N)SCc1c2ccccc2c(CSC(=N)N)c2ccccc12`, the T/C (dose: 2.5 mg/kg/injection, vehicle: saline) was 172 % of control, the T/C [7] was 186 % of control and 209 % of control and the T/C [2] was 177 % of control and 204 % of control. For the same molecule, the T/C [3] was 109 % of control and 209 % of control and the T/C [4] was 104 % of control.

In the case of `CC(=O)N(C)C`, the T/C [14] was 90 % of control and the T/C (dose: 250.0 mg/kg/injection, vehicle: saline) was 96 % of control.

For `CCn1cnc2c(=S)nc[nH]c21`, the T/C (dose: 15.6 mg/kg/injection, vehicle: saline) was 100 % of control and 108 % of control, the T/C (dose: 31.3 mg/kg/injection, vehicle: saline) was 96 % of control and 100 % of control and the T/C [14] was 100 % of control and 119 % of control. For the same molecule, the T/C (dose: 125.0 mg/kg/injection, vehicle: saline) was 112 % of control.

For `N#CCSc1ncnc2nc[nH]c12`, the T/C (dose: 15.0 mg/kg/injection, vehicle: saline) was 86 % of control and 113 % of control, the T/C (dose: 30.0 mg/kg/injection, vehicle: saline) was 118 % of control and 120 % of control and the T/C (dose: 60.0 mg/kg/injection, vehicle: saline) was 113 % of control. The T/C (dose: 120.0 mg/kg/injection, vehicle: saline) was 118 % of control.

In the case of `O=C(Nc1ccc(C2=NCCN2)cc1)c1ccc(C(=O)Nc2ccc(C3=NCCN3)cc2)c([N+](=O)[O-])c1`, the T/C [13] was 121 % of control and the T/C [5] was 113 % of control.
